The values below come from patent US10590088B2, “4-(benzimidazol-2-ylamino)benzamide derivatives and methods of synthesis thereof” (TRANSLATIONAL DRUG DEVELOPMENT, LLC, priority 2009, dated 2020).

The subject of one assay is SKOV3 cells. As to the kind of experiment: CellTiter-Blue cell viability assay, single agent, 72 hour treatment, SKOV3. Format: cell-based. As to conditions: Homo sapiens, SK-OV-3. The procedure:
(§1) Cell viability in the presence of varying concentrations of the above listed compounds at different time points was used to assess cytotoxicity and the effect of the compounds on cell proliferation.
(§2) Cell viability was measured by the CellTiter-Blue® cell viability assay Promega (Madison, Wis.). This procedure measures the conversion of the indicator dye (resazurin) to resorufin, an indicator of cell viability. Following treatment, growth media was removed and cells were incubated with 20 μl of CellTiter-Blue® Reagent and growth media for 1-4 hours at 37° C. Fluorescence values were measured at 535/590 nm using a Beckman-Coulter DTX-880 microplate reader.
(§3) Cells were grown to 70% confluency, trypsinized, counted, and seeded in 96 well flat-bottom plates at a final concentration of 2.5×10^3-5×10^3 cells/well (Day 0). Cells were allowed to incubate in growth media for 24 hours to allow for maximum adhesion. Treatment with the test agents or standard agents began on Day 1 and continued for 72 hours. At the 72 hour timepoint, treatment containing media was removed. Viable cell numbers are quantified by the CellTiter-Blue® cell viability assay as described above. Experiments were repeated at least twice with the same concentrations to determine growth inhibitory activity. Results from these studies were used to calculate an IC50 value (concentration of drug that inhibits cell growth by 50 percent of control) for each compound.
(§4) For single agent and combination studies, data from each experiment was collected and expressed as % Cell Growth using the following calculation: % Cell Growth=(ftest/fvehicle)×100
(§5) Where ftest is the fluorescence of the tested sample, and fvehicle is the fluorescence of the vehicle in which the drug is dissolved. Dose response graphs and IC50 values were generated using Prism 4 software (GraphPad) using the following equation: […]
(§6) Where X is the logarithm of concentration and Y is the response. Y starts at the Bottom and goes to Top with a sigmoid shape.
In general terms: Alamar Blue is a resazurin reagent that responds to reducing activity.

A further assay has as its system A2780 cells. As to the kind of experiment: CellTiter-Blue cell viability assay, single agent, 72 hour treatment, A2780. Format: cell-based. As to conditions: Homo sapiens. The procedure:
as §1, §2, §3, §4, §5, §6

The test system of assay [1] is A2780 human ovarian cells xenograft. Nature of the assay: In vivo efficacy in human ovarian tumor xenograft model. As to conditions: female Ncr nude mice. The procedure:
FIG. 1 depicts in vivo efficacy studies of compound #4 (N-hydroxy-4-(1-(2-methoxyethyl)-1H-benzo[d]imidazol-2-ylamino)benzamide) in A2780 xenograft models.
In vivo efficacy of the disclosed compound was tested through a human ovarian tumor xenograft model. Female Ncr nude mice were inoculated with 1×10^7 A2780 human ovarian cells suspended in a mixture of 50% Matrigel and 50% tissue culture media in a total volume of 100 μl. Four days following inoculation, the mice were pair-matched into four groups of 7-8 mice per group at an average tumor weight of 157 mg per group. Group 1 (G1) was treated with vehicle only daily for 14 days. Group 3 (G3) was treated with Compound ID #4 (T062) at 100 mg/kg daily for 14 days. Group 5 (G5) was treated with Doxil at 3 mg/kg on Day 1 only. Group 6 (G6) was treated with Compound ID #4 (T062) at 50 mg/kg (daily for 14 days) plus Doxil at 3 mg/kg on Day 1 only. Group 7 (G7) was treated with Compound ID #4 (T062) at 100 mg/kg (daily for 14 days) plus Doxil at 3 mg/kg on Day 1 only. Vehicle and Compound ID #4 were administered orally via oral gavage while Doxil was administered intravenously via tail injection. Body weights and tumor measurements were collected twice weekly. Tumor width and length were measured in millimeters and converted to tumor weight (in milligrams) using the formula […]=tumor weight (mg.).
A general note: In xenograft studies the graft and the host belong to different species.

Take `O=C(NO)c1ccc(Nc2nc3ccccc3n2CCO)cc1` [ID 11, N-hydroxy-4-(1-(2-hydroxyethyl)-1H-benzo[d]imidazol-2-ylamino)benzamide]: the half-maximal inhibitory concentration (IC50) (in general, the concentration that gives 50% inhibition) in the assay on SKOV3 cells is 34 µM; in the assay with A2780 cells, 40 µM.

`CN(C)CCn1c(Nc2ccc(C(=O)NO)cc2)nc2cc(Br)ccc21` [ID 17, 4-(5-bromo-1-(2-(dimethylamino)ethyl)-1H-benzo[d]imidazol-2-ylamino)-N-hydroxybenzamide]: the IC50 with SKOV3 cells was determined as 8.2 µM.

For `COCCn1c(Nc2ccc(C(=O)NO)cc2)nc2c(F)cccc21` [ID 22, 4-(4-fluoro-1-(2-methoxyethyl)-1H-benzo[d]imidazol-2-ylamino)-N-hydroxybenzamide], the IC50 with SKOV3 cells stood at 17.6 µM; in the assay with A2780 cells, 12.1 µM.

As to `CC(C)OCCn1c(Nc2ccc(C(=O)NO)cc2)nc2ccccc21` [ID 13, N-hydroxy-4-(1-(2-isopropoxyethyl)-1H-benzo[d]imidazol-2-ylamino)benzamide], the half-inhibitory concentration (IC50) was found to be 1.9 µM in the assay on SKOV3 cells and 5.1 µM in the assay on A2780 cells.

Turning to `CC(C)n1c(Nc2ccc(C(=O)NO)cc2)nc2cc(-c3cccnc3)ccc21` [ID 19, N-hydroxy-4-(1-isopropyl-5-(pyridin-3-yl)-1H-benzo[d]imidazol-2-ylamino)benzamide], the 50% inhibitory concentration (IC50) with SKOV3 cells worked out at 8.1 µM.

`COCCn1c(Nc2ccc(C(=O)NO)cc2)nc2ccc(F)cc21` [ID 21, 4-(6-fluoro-1-(2-methoxyethyl)-1H-benzo[d]imidazol-2-ylamino)-N-hydroxybenzamide]: the IC50 in the assay with SKOV3 cells stood at 17.7 µM; with A2780 cells it was 12.1 µM.

Take `COCCn1c(Nc2ccc(C(=O)NO)cc2)nc2ccccc21` [ID 4, N-hydroxy-4-(1-(2-methoxyethyl)-1H-benzo[d]imidazol-2-ylamino)benzamide]: the “In vivo efficacy (tumor weight) versus Doxil as a single agent” value in assay [1] (Group 6: Compound ID #4 50 mg/kg oral daily for 14 days plus Doxil 3 mg/kg i.v. on Day 1 only) and in assay [1] (Group 7: Compound ID #4 100 mg/kg oral daily for 14 days plus Doxil 3 mg/kg i.v. on Day 1 only) was “improved efficacy over Group 5” throughout.

For `COCCn1c(Nc2ccc(C(=O)NO)cc2)nc2cc(-c3cncnc3)ccc21` [ID 15, N-hydroxy-4-(1-(2-methoxyethyl)-5-(pyrimidin-5-yl)-1H-benzo[d]imidazol-2-ylamino)benzamide], the IC50 in the assay with SKOV3 cells was 48 µM; with A2780 cells, 16 µM.

As to `COCCn1c(Nc2ccc(C(=O)NO)cc2)nc2cc(-c3cccc(F)c3)ccc21` [ID 14, 4-(5-(3-fluorophenyl)-1-(2-methoxyethyl)-1H-benzo[d]imidazol-2-ylamino)-N-hydroxybenzamide], the IC50 in the assay on SKOV3 cells was determined as 0.3 µM; in the assay with A2780 cells, 1.1 µM.

On to `COCCn1c(Nc2ccc(C(=O)NO)cc2)nc2cc(C3CC3)ccc21` [ID 16, 4-(5-cyclopropyl-1-(2-methoxyethyl)-1H-benzo[d]imidazol-2-ylamino)-N-hydroxybenzamide], for which the IC50 was 4.3 µM in the assay on SKOV3 cells and 15 µM with A2780 cells.

`COCCn1c(Nc2ccc(C(=O)NO)cc2)nc2cc(Br)ccc21` [ID 10, 4-(5-bromo-1-(2-methoxyethyl)-1H-benzo[d]imidazol-2-ylamino)-N-hydroxybenzamide]: the half-maximal inhibitory concentration (IC50) in the assay with SKOV3 cells was 6.9 µM; with A2780 cells it was 4.1 µM.

`COCCCn1c(Nc2ccc(C(=O)NO)cc2)nc2ccccc21` [ID 9, N-hydroxy-4-(1-(3-methoxypropyl)-1H-benzo[d]imidazol-2-ylamino)benzamide]: in the assay with A2780 cells, the 50% inhibitory concentration (IC50) was determined as 1.9 µM.

Consider `COCCn1c(Nc2ccc(C(=O)Nc3ccccc3N)cc2)nc2ccccc21` [ID 20, N-(2-aminophenyl)-4-(1-(2-methoxyethyl)-1H-benzo[d]imidazol-2-ylamino)benzamide], for which the IC50 with SKOV3 cells stood at 5.8 µM.

As to `CC(C)n1c(Nc2ccc(C(=O)NO)cc2)nc2cc(-c3cncnc3)ccc21` [ID 18, N-hydroxy-4-(1-isopropyl-5-(pyrimidin-5-yl)-1H-benzo[d]imidazol-2-ylamino)benzamide], the IC50 with SKOV3 cells was 21 µM.

As to `CC(C)n1c(Nc2ccc(C(=O)Nc3ccccc3N)cc2)nc2ccccc21` [ID 1, N-(2-aminophenyl)-4-(1-isopropyl-1H-benzo[d]imidazol-2-ylamino)benzamide], the concentration for half-maximal inhibition (IC50) in the assay on SKOV3 cells stood at 4.8 µM.

In the case of `COCc1ccc2c(c1)nc(Nc1ccc(C(=O)NO)cc1)n2C(C)C` [ID 23, N-hydroxy-4-(1-isopropyl-5-(methoxymethyl)-1H-benzo[d]imidazol-2-ylamino)benzamide], the IC50 in the assay on SKOV3 cells is 16 µM; with A2780 cells, 22 µM.

For the compound `COCCn1c(Nc2ccc(C(=O)NO)cc2)nc2cc(F)ccc21` [ID 12, 4-(5-fluoro-1-(2-methoxyethyl)-1H-benzo[d]imidazol-2-ylamino)-N-hydroxybenzamide], the figures for the IC50 with SKOV3 cells and with A2780 cells were 0.7 µM and 1.4 µM, respectively.
